Test [1] has as its system Cognate DNA sequence (DNA, hairpin) CGCATATGGTATGTGCCGCGGAAAAACCGCGGCACATACCATATGCG
Put plainly: SPR, steady state, 1:1 fit. Conditions: HBS-EP + 0.1% DMSO, pH 7.4, 25 °C. A general note: SPR reads the build-up and loss of mass on a sensor chip optically.

The test system of test [2] is 3 bp mismatch (DNA, hairpin) CAGTCATGAGCATGGATGCGGAAAAACCGCATCCATGCTCATGACTG
Description: SPR, steady state, 1:1 fit. Conditions: HBS-EP + 0.1% DMSO, pH 7.4, 25 °C.

As to `CN(C)CCCNC(=O)CCNC(=O)c1cc(NC(=O)c2cc(NC(=O)c3cc(NC(=O)c4cc(NC(=O)CCCNC(=O)c5cc(NC(=O)c6cc(NC(=O)c7nc(NC(=O)c8nc(NC(=O)CCOCCOCCOCCNC(=O)[C@@H](N)CSSC(C)(C)C)cn8C)cn7C)cn6C)cn5C)cn4C)cn3C)cn2C)cn1C`, the Kd in test [1] (apparent) is on record as 9.3 ± 1.6 nM. As for `CC(=O)Nc1cn(C)c(C(=O)Nc2cn(C)c(C(=O)Nc3cc(C(=O)Nc4cc(C(=O)NCCCC(=O)Nc5cc(C(=O)Nc6cc(C(=O)Nc7cc(C(=O)Nc8cc(C(=O)NCCC(=O)NCCCN(C)C)n(C)c8)n(C)c7)n(C)c6)n(C)c5)n(C)c4)n(C)c3)n2)n1`, the Kd in test [1] is recorded as 1.6 ± 0.1 nM; in test [2], 314 ± 160 nM.

Values taken from publication PMC4490465 (2015).
